Assay results: patent publication US6791014B2, “Use of HPPD inhibitors as selection agents in plant transformation” (Aventis Cropscience, S.A., priority 2000, dated 2004)

How the values were obtained:
Type in all cases: cell-based, soya bean (Glycine max (L.) Merrill)
[1] = test system: soya bean proliferative embryogenic tissues; assay: Transformation of soya bean embryogenic tissues by particle bombardment, HPPD inhibitor selection on FNL medium (green calluses); conditions: for mean number of green calluses selected per transformation trial: bleached tissues according to the invention, pooled over both plasmids
Source text: In order to improve the selection process according to the invention, an attempt was made to decrease the number of tissue transfers and the time required for producing calluses of competent cells and green calluses selected after bombardment. To this effect, the D20 medium previously used was replaced with a modified FNL medium which allows rapid proliferation of the tissues. The FNL medium has been described by Samoylov, Tucker, Thibaud-Nissen & Parrott in: A liquid-medium-based protocol for rapid regeneration from embryogenic soya bean cultures: Plant Cell Rep, 18: 49-54, 1998. This medium makes it possible to produce tissues ready for bombardment more rapidly, greater embryogeny and shorter transfer cycles. Composition of the FNL medium: Na2EDTA: 37.24 mg/l; FeSO4, 7H2O: 27.84 mg/l; MgSO4, 7H2O: 370 mg/l; MnSO4. H2O: 16.9 mg/l; ZnSO4, H2O: 8.6 mg/l; CuSO4. 7H25O: 0.025 mg/l; CaCl2. 2H2O: 440 mg/l; KI: 0.83 mg/l; CoCl2. 6H2O: 0.025 mg/l; KH2PO4: 170 mg/l; H3BO3: 6.2 mg/l; Na2MoO4. 2H2O: 0.25 mg/l; myo-inositol: 100 mg/l; nicotinic acid: 1 mg/l; pyridoxine-HCl: 1 mg/l; thiamine-HCl: 10 mg/l; (NH4)2SO4: 460 mg/l; KNO3: 2820 mg/l; asparagine: 670 mg/l; 1% sucrose; 2.4-D: 10 mg/l; 0.3% […]; pH 5.7. […] The bombardment of tissues bleached with isoxaflutol according to the invention requires only one transfer of calluses before the selected green calluses are produced, against 4 when using the D20 medium. The time required for producing calluses from cells which are competent for the bombardment is 2 months, the transformed green calluses being selected approximately 3 months after the initiation of the calluses for transformation.

[2] = test system: soya bean proliferative embryogenic tissues; assay: Transformation of soya bean embryogenic tissues by particle bombardment, HPPD inhibitor selection on D20 medium (green calluses); conditions: bleaching after bombardment
[3] = test system: soya bean proliferative embryogenic tissues; assay: as above; conditions: bleaching before bombardment
Source text: The technology used for transforming soya bean has been described by Santarem & Finer: Transformation of soya bean (Glycine max (L.) Merrill) using proliferative embryogenic tissue maintained on semi-solid medium. In Vitro Cell. Dev. Biol. Plant 35 451-455, 1999. It comprises the steps hereinafter.
Immature zygotic embryos (from 3 to 4 mm) are aseptically dissected and placed with the adaxial side upwards in a medium comprising 2.4D (D40).
After culturing for 3 weeks in D40 medium, the cotyledons are transferred onto a D20 medium which comprises essentially the same elements as the D40 medium, with the exception of the 2.4D concentration, which is decreased to […], and the sucrose concentration, which is decreased from 60 g/l to 30 g/l, at pH 5.7.
On this medium, the somatic embryos begin to proliferate in the form of compact aggregates or clumps. The embryogenic clumps are then transferred every two weeks onto a new D20 medium in order to increase the production of tissues. Five or six transfers (approximately 3 months) onto this medium are necessary in order to optimize their competence at transformation. The use of embryogenic tissues which are at an earlier stage produces much poorer results.
Particle bombardment is used for transforming the embryogenic tissues.
Particle preparation: flnctionalized tungsten (M17) particles are prepared according to U.S. Pat. No. 6,068,980. The particles are functionalized by grafting aminated silicones as the vectorization element, and washed in absolute ethanol. 2.5 mg of particles in ethanol are mixed with 3 μg of DNA. After precipitation, the particles are pipetted and used for two shots with a particle gun of the PIG type described by Finer, Vain, Lones and McMullen in: Development of the Particle Inflow Gun for DNA delivery to plant cells. Plant Cell Rep. 11: 323-328, 1992.
Before the bombardment, the tissues are dried under vacuum under a laminar-flow hood for 5 to 10 min, and then placed between two 500 μm screens and bombarded twice.
The same selection method was developed for the HPPD inhibitors, with a D20 medium comprising 2 mg/l of isoxaflutole or 0.5 to 5 mg/l of diketonitriles. The gene for tolerance to HPPD inhibitors which was used as a selection marker is pCH73 or pCH94 represented in FIG. 1.
In order to avoid handling tissues and to gain time, the bombarded calluses are placed on sterile gauze screen fixed with two metal rings which enable direct contact between the embryogenic tissues and the solid medium. The gauze screens are transferred onto fresh media every 15 days until green calluses are observed. It is understood that the principle of callus transfer described above is not limited to soya bean calluses and to selection with hygromycin, but may be used for any method for culturing tissues and cells suspensions which requires frequent changing of culture medium.
(§1) 10 to 15 days prior to the bombardment, the isoxaflutole or the diketonitriles are introduced into the D20 medium, at the abovementioned concentrations, so as to bleach the tissues. After bombardment, the tissues are placed directly in the same D20 medium comprising […] of isoxaflutole or diketonitrile (between 0.5 and 5 mg/l) and transferred into fresh medium every 15 days. After 4 transfers onto the isoxaflutole. green calluses are identified and amplified as described in Example 1. The time required for producing calluses of cells which are competent for the bombardment is 3 and a half months. The selection of the transformed cells (green calluses) occurs approximately 6 months after the initiation of the calluses for the transformation.

[4] = test system: soya bean embryogenic tissues; assay: Bleaching and growth of soya bean embryogenic tissues on medium with HPPD inhibitor; conditions: tissues transferred for selection on isoxaflutole, D20 medium, 2 mg/l
Procedure: as §1, with “The same selection method was developed for the HPPD inhibitors, with a D20 medium comprising 2 mg/l of isoxaflutole or 0.5 to 5 mg/l of diketonitriles. The gene for tolerance to HPPD inhibitors which was used as a selection marker is pCH73 or pCH94 represented in FIG. 1. 10” for “10”, “transformation. […] This is due to the fact that the absence of carotenoids, of chlorophyll and of tocopherols is […] to the growth of tissues.” for “transformation.”

[5] = bleaching before bombardment, attempt 1
[6] = bleaching before bombardment, attempt 2
[7] = bleaching before bombardment, attempt 3

Compound | mean number of green calluses selected per transformation trial [1] | number of green calluses selected ([1]; bleaching after bombardment, attempt 1) | number of green calluses selected ([1]; bleaching after bombardment, attempt 2) | number of green calluses selected [1, 5] | number of green calluses selected [1, 6] | number of green calluses selected [1, 7] | number of green calluses identified ([2]; attempt 1) | number of green calluses identified ([2]; attempt 2) | number of green calluses identified ([2]; attempt 3) | number of green calluses identified ([3]; attempt 1) | number of green calluses identified ([3]; attempt 2) | number of green calluses identified ([3]; attempt 3) | number of green calluses selected ([1]; bleaching before bombardment, attempt 4) | bleaching of the tissues [4] | inhibition of growth of the tissues [4]
pCH73: plasmid carrying gene for tolerance to HPPD inhibitors: sunflower RuBisCo ssu promoter, optimized transit peptide, HPPDW336, NOS terminator; SEQ ID NO 1 | 1 per shot | 0.25 | 0 | 1 | 1.5 | 0.33 | 0 | 0 | 0.25 | 0 | 0.5 | 0.25 |  |  | 
pCH94: plasmid carrying gene for tolerance to HPPD inhibitors: Arabidopsis histone promoter, TEV enhancer, optimized transit peptide, HPPDW336, NOS terminator; SEQ ID NO 2 | 1 per shot |  |  | 1 | 1 | 0.33 | 0.67 | 0.33 | 0.25 | 0.67 | 1 | 2 | 1.5 |  | 
CS(=O)(=O)c1cc(C(F)(F)F)ccc1C(=O)c1cnoc1C1CC1 [isoxaflutole] |  |  |  |  |  |  |  |  |  |  |  |  |  | rapidly bleached | without any inhibition of growth being observed
